Starred links: 1 amine or outer side, 2 acyl side, 3 side chain; linkers in the order of their positions; H or OH if unused. Positions of bridges follow the written chain, without caps; N, C: chain ends. Non-standard residues stand in square brackets, D forms with d. Residues, ends and D or L forms follow the SMILES beside them. *: point of attachment. hPhe(3-Cl-4-CF3) = N[C@@H](CCc1ccc(C(F)(F)F)c(Cl)c1)C(=O)O; hPhe(3-F,4-CF3) = N[C@@H](CCc1ccc(C(F)(F)F)c(F)c1)C(=O)O; NMePhe(4-CF3) = CN[C@@H](Cc1ccc(C(F)(F)F)cc1)C(=O)O; 3Oxa8azabicyclo(3.2.1)octane = C1CC2COCC1N2*; NMePhe(4-Me) = CN[C@@H](Cc1ccc(C)cc1)C(=O)O; X11 = CN([C@@H](CCc1cccnc1)C(=O)[*:2])[*:1]; X3 = CN([C@@H](CCc1ccncc1)C(=O)[*:2])[*:1]; NMeAla(cPent) = CN[C@@H](CC1CCCC1)C(=O)O; NMeGly(cPent) = CN[C@H](C(=O)O)C1CCCC1; NMeCha = CN[C@@H](CC1CCCCC1)C(=O)O; NMeChg = CN[C@H](C(=O)O)C1CCCCC1; Gly(cBu) = N[C@H](C(=O)O)C1CCC1; NMeD = CN[C@@H](CC(=O)O)C(=O)O; NMeL = CN[C@@H](CC(C)C)C(=O)O; NMeNva = CCC[C@H](NC)C(=O)O; NMeAbu = CC[C@H](NC)C(=O)O; NMeS = CN[C@@H](CO)C(=O)O; Morpholide = C1CN(*)CCO1; NMeA = CN[C@@H](C)C(=O)O; Pyrrolidide = C1CCN(*)C1; Ac5c = NC1(C(=O)O)CCCC1; Aze = O=C(O)[C@@H]1CCN1; Sar = CNCC(=O)O; Propyl = CCC*
Experiments:
[1] = biological target: T1, Kras and SOS1 (biotin-tagged human Kras loaded with GDP, His-tagged human SOS1) (Homo sapiens, UniProt P01116, G12D); test: Protein-protein interaction inhibition between Kras and SOS1 (KrasGl2D-SOS PPI) using AlphaScreen; type: binding; conditions: AlphaScreen; biotin-tagged human Kras loaded with GDP, His-tagged human SOS1; read-out: KRAS G12D-SOS PPI IC50
T1 construct: made in house; host or cells: E. coli (stated for Kras only)
T1 sequence (P01116 1-188 isoform P01116-2 G12D): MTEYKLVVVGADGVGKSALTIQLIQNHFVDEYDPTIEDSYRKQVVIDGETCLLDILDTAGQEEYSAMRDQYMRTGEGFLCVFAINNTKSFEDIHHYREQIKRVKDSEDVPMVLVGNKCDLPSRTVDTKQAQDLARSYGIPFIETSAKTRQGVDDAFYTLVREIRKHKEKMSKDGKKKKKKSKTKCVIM
Outline: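 Binding between SOS1 and Kras is detected as bead-proximity luminescence: illuminate Ni-conjugated donors (680 nm), collect 520-620 nm emission from streptavidin-conjugated acceptors; Kras carries biotin and GDP loaded after purification, SOS1 carries a His tag.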

[2] = test system: Human pancreatic cancer cell line AsPC-1; test: Measurement of AsPC-1 cell growth inhibition (AsPC-1 CGI); type: cell-based; conditions: 96 h
Outline: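 AsPC-1 cells in 15% FBS RPMI-1640 were exposed to test compound for 96 hours at 37° C, with CellTiter-Glo as endpoint.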

| Compound | IC50 [1] [nM] | IC50 [2] [nM] |
| --- | --- | --- |
| CC[C@H](C)[C@@H]1NC(=O)[C@H](CC(C)C)N(C)C(=O)C[C@@H](C(=O)N2C3CCC2COC3)N(C)C(=O)[C@H](C2CCCCC2)N(C)C(=O)C2(CCCC2)NC(=O)[C@@H]2CCCN2C(=O)[C@H](CCc2ccc(C(F)(F)F)c(Cl)c2)NC(=O)CN(C)C(=O)[C@H](Cc2ccc(C)cc2)N(C)C(=O)CN(C)C(=O)CN(C)C1=O [Compound 1869] ([NMeL]I[Sar][Sar][NMePhe(4-Me)][Sar][hPhe(3-Cl-4-CF3)]P[Ac5c][NMeChg][NMeD]-{3Oxa8azabicyclo(3.2.1)octane}; lactam N-11) | 0.76 | 50 to 100 |
| CC[C@H](C)[C@@H]1NC(=O)[C@H](CC(C)C)N(C)C(=O)C[C@@H](C(=O)N2CCCC2)N(C)C(=O)[C@H](C2CCCCC2)N(C)C(=O)C2(CCCC2)NC(=O)[C@@H]2CCCN2C(=O)[C@H](CCc2ccc(C(F)(F)F)c(F)c2)NC(=O)CN(C)C(=O)[C@H](CC2CCCCC2)N(C)C(=O)CN(C)C(=O)CN(C)C1=O [Compound 1870] ([NMeL]I[Sar][Sar][NMeCha][Sar][hPhe(3-F,4-CF3)]P[Ac5c][NMeChg][NMeD]-Pyrrolidide; lactam N-11) | 0.74 | 20 to 50 |
| CCC[C@H]1C(=O)N[C@@H]([C@@H](C)CC)C(=O)N(C)CC(=O)N(C)CC(=O)N(C)[C@@H](Cc2ccc(C)cc2)C(=O)N(C)CC(=O)N[C@@H](CCc2ccc(C(F)(F)F)c(Cl)c2)C(=O)N2CCC[C@H]2C(=O)NC2(CCCC2)C(=O)N(C)[C@@H](C2CCCCC2)C(=O)N(C)[C@H](C(=O)N2CCOCC2)CC(=O)N1C [Compound 1871] ([NMeNva]I[Sar][Sar][NMePhe(4-Me)][Sar][hPhe(3-Cl-4-CF3)]P[Ac5c][NMeChg][NMeD]-Morpholide; lactam N-11) | 0.48 | 20 to 50 |
| CC[C@H](C)[C@@H]1NC(=O)[C@H](CC(C)C)N(C)C(=O)C[C@@H](C(=O)N2CCOCC2)N(C)C(=O)[C@H](C2CCCCC2)N(C)C(=O)C2(CCCC2)NC(=O)[C@@H]2CCCN2C(=O)[C@H](CCc2ccc(C(F)(F)F)c(Cl)c2)NC(=O)CN(C)C(=O)[C@H](Cc2ccc(C)cc2)N(C)C(=O)CN(C)C(=O)CN(C)C1=O [Compound 1872] ([NMeL]I[Sar][Sar][NMePhe(4-Me)][Sar][hPhe(3-Cl-4-CF3)]P[Ac5c][NMeChg][NMeD]-Morpholide; lactam N-11) | 0.65 | 20 to 50 |
| CC[C@H](C)[C@@H]1NC(=O)[C@H](CC)N(C)C(=O)C[C@@H](C(=O)N2C3CCC2COC3)N(C)C(=O)[C@H](C2CCCCC2)N(C)C(=O)C2(CCCC2)NC(=O)[C@@H]2CCCN2C(=O)[C@H](CCc2ccc(C(F)(F)F)c(Cl)c2)NC(=O)CN(C)C(=O)[C@H](CC2CCCC2)N(C)C(=O)CN(C)C(=O)CN(C)C1=O [Compound 1877] ([NMeAbu]I[Sar][Sar][NMeAla(cPent)][Sar][hPhe(3-Cl-4-CF3)]P[Ac5c][NMeChg][NMeD]-{3Oxa8azabicyclo(3.2.1)octane}; lactam N-11) | 0.86 | 100 to 500 |
| CC(C)C[C@H]1C(=O)N[C@@H](C2CCC2)C(=O)N(C)CC(=O)N(C)CC(=O)N(C)[C@@H](CC2CCCCC2)C(=O)N(C)CC(=O)N[C@@H](CCc2ccc(C(F)(F)F)c(Cl)c2)C(=O)N2CCC[C@H]2C(=O)NC2(CCCC2)C(=O)N(C)[C@@H](C2CCCCC2)C(=O)N(C)[C@H](C(=O)N2C3CCC2COC3)CC(=O)N1C [Compound 1879] ([NMeL][Gly(cBu)][Sar][Sar][NMeCha][Sar][hPhe(3-Cl-4-CF3)]P[Ac5c][NMeChg][NMeD]-{3Oxa8azabicyclo(3.2.1)octane}; lactam N-11) | 0.66 | 50 to 100 |
| CC[C@H](C)[C@@H]1NC(=O)[C@H](CC(C)C)N(C)C(=O)C[C@@H](C(=O)N(C)C)N(C)C(=O)[C@H](C2CCCC2)N(C)C(=O)C2(CCCC2)NC(=O)[C@H](CCc2ccncc2)N(C)C(=O)[C@H](CCc2ccc(C(F)(F)F)c(Cl)c2)NC(=O)CN(C)C(=O)[C@H](CC2CCCCC2)N(C)C(=O)[C@@H]2CCN2C(=O)[C@H](C)N(C)C1=O [Compound 1881] ([NMeL]I[NMeA][Aze][NMeCha][Sar][hPhe(3-Cl-4-CF3)][X3][Ac5c][NMeGly(cPent)][NMeD]-NMe2; lactam N-11) | 1.4 | 50 to 100 |
| CC[C@H](C)[C@@H]1NC(=O)[C@H](CC)N(C)C(=O)C[C@@H](C(=O)N2CCOCC2)N(C)C(=O)[C@H](C2CCCCC2)N(C)C(=O)C2(CCCC2)NC(=O)[C@@H]2CCCN2C(=O)[C@H](CCc2ccc(C(F)(F)F)c(Cl)c2)NC(=O)CN(C)C(=O)[C@H](Cc2ccc(C(F)(F)F)cc2)N(C)C(=O)CN(C)C(=O)CN(C)C1=O [Compound 1884] ([NMeAbu]I[Sar][Sar][NMePhe(4-CF3)][Sar][hPhe(3-Cl-4-CF3)]P[Ac5c][NMeChg][NMeD]-Morpholide; lactam N-11) | 0.41 | 20 to 50 |
| CC[C@H](C)[C@@H]1NC(=O)[C@H](CC)N(C)C(=O)C[C@@H](C(=O)N2CCCC2)N(C)C(=O)[C@H](C2CCCCC2)N(C)C(=O)C2(CCCC2)NC(=O)[C@@H]2CCCN2C(=O)[C@H](CCc2ccc(C(F)(F)F)c(Cl)c2)NC(=O)CN(C)C(=O)[C@H](Cc2ccc(C(F)(F)F)cc2)N(C)C(=O)CN(C)C(=O)CN(C)C1=O [Compound 1890] ([NMeAbu]I[Sar][Sar][NMePhe(4-CF3)][Sar][hPhe(3-Cl-4-CF3)]P[Ac5c][NMeChg][NMeD]-Pyrrolidide; lactam N-11) | 0.55 | 20 to 50 |
| CC[C@H](C)[C@@H]1NC(=O)[C@H](CC(C)C)N(C)C(=O)C[C@@H](C(=O)N(C)C)N(C)C(=O)[C@H](C2CCCC2)N(C)C(=O)C2(CCCC2)NC(=O)[C@H](CCc2cccnc2)N(C)C(=O)[C@H](CCc2ccc(C(F)(F)F)c(Cl)c2)NC(=O)CN(C)C(=O)[C@H](CC2CCCCC2)N(C)C(=O)[C@@H]2CCN2C(=O)[C@H](C)N(C)C1=O [Compound 1892] ([NMeL]I[NMeA][Aze][NMeCha][Sar][hPhe(3-Cl-4-CF3)][X11][Ac5c][NMeGly(cPent)][NMeD]-NMe2; lactam N-11) | 1.5 | 50 to 100 |
| CCCOC[C@H]1C(=O)N(C)CC(=O)N[C@@H](CCc2ccc(C(F)(F)F)c(Cl)c2)C(=O)N2CCC[C@H]2C(=O)NC2(CCCC2)C(=O)N(C)[C@@H](C2CCCCC2)C(=O)N(C)[C@H](C(=O)N2CCOCC2)CC(=O)N(C)[C@@H](CC)C(=O)N[C@@H]([C@@H](C)CC)C(=O)N(C)CC(=O)N(C)CC(=O)N1C [Compound 1896] ([NMeAbu]I[Sar][Sar][NMeS](Propyl)[Sar][hPhe(3-Cl-4-CF3)]P[Ac5c][NMeChg][NMeD]-Morpholide; lactam N-11) | 0.49 | 100 to 500 |
| CCCOC[C@H]1C(=O)N(C)CC(=O)N[C@@H](CCc2ccc(C(F)(F)F)c(Cl)c2)C(=O)N2CCC[C@H]2C(=O)NC2(CCCC2)C(=O)N(C)[C@@H](C2CCCCC2)C(=O)N(C)[C@H](C(=O)N2C3CCC2COC3)CC(=O)N(C)[C@@H](CC(C)C)C(=O)N[C@@H]([C@@H](C)CC)C(=O)N(C)CC(=O)N(C)CC(=O)N1C [Compound 1900] ([NMeL]I[Sar][Sar][NMeS](Propyl)[Sar][hPhe(3-Cl-4-CF3)]P[Ac5c][NMeChg][NMeD]-{3Oxa8azabicyclo(3.2.1)octane}; lactam N-11) | 0.99 | 100 to 500 |
| CC[C@H](C)[C@@H]1NC(=O)[C@H](CC)N(C)C(=O)C[C@@H](C(=O)N2C3CCC2COC3)N(C)C(=O)[C@H](C2CCCCC2)N(C)C(=O)C2(CCCC2)NC(=O)[C@@H]2CCCN2C(=O)[C@H](CCc2ccc(C(F)(F)F)c(Cl)c2)NC(=O)CN(C)C(=O)[C@H](CC2CCCCC2)N(C)C(=O)CN(C)C(=O)CN(C)C1=O [Compound 1901] ([NMeAbu]I[Sar][Sar][NMeCha][Sar][hPhe(3-Cl-4-CF3)]P[Ac5c][NMeChg][NMeD]-{3Oxa8azabicyclo(3.2.1)octane}; lactam N-11) | 0.56 | 50 to 100 |
| CC[C@H](C)[C@@H]1NC(=O)[C@H](CC)N(C)C(=O)C[C@@H](C(=O)N2CCOCC2)N(C)C(=O)[C@H](C2CCCCC2)N(C)C(=O)C2(CCCC2)NC(=O)[C@@H]2CCCN2C(=O)[C@H](CCc2ccc(C(F)(F)F)c(Cl)c2)NC(=O)CN(C)C(=O)[C@H](Cc2ccc(C)cc2)N(C)C(=O)CN(C)C(=O)CN(C)C1=O [Compound 1904] ([NMeAbu]I[Sar][Sar][NMePhe(4-Me)][Sar][hPhe(3-Cl-4-CF3)]P[Ac5c][NMeChg][NMeD]-Morpholide; lactam N-11) | 0.57 | 20 to 50 |
| CC[C@H](C)[C@@H]1NC(=O)[C@H](CC)N(C)C(=O)C[C@@H](C(=O)N2CCCC2)N(C)C(=O)[C@H](C2CCCCC2)N(C)C(=O)C2(CCCC2)NC(=O)[C@@H]2CCCN2C(=O)[C@H](CCc2ccc(C(F)(F)F)c(Cl)c2)NC(=O)CN(C)C(=O)[C@H](Cc2ccc(C)cc2)N(C)C(=O)CN(C)C(=O)CN(C)C1=O [Compound 1905] ([NMeAbu]I[Sar][Sar][NMePhe(4-Me)][Sar][hPhe(3-Cl-4-CF3)]P[Ac5c][NMeChg][NMeD]-Pyrrolidide; lactam N-11) | 0.33 | 20 to 50 |
| CC(C)C[C@H]1C(=O)N[C@@H](C2CCC2)C(=O)N(C)CC(=O)N(C)CC(=O)N(C)[C@@H](CC2CCCCC2)C(=O)N(C)CC(=O)N[C@@H](CCc2ccc(C(F)(F)F)c(Cl)c2)C(=O)N2CCC[C@H]2C(=O)NC2(CCCC2)C(=O)N(C)[C@@H](C2CCCCC2)C(=O)N(C)[C@H](C(=O)N2CCOCC2)CC(=O)N1C [Compound 1906] ([NMeL][Gly(cBu)][Sar][Sar][NMeCha][Sar][hPhe(3-Cl-4-CF3)]P[Ac5c][NMeChg][NMeD]-Morpholide; lactam N-11) | 0.55 | 50 to 100 |

Reference: patent publication US12371454B2, “Cyclic peptide compound having Kras inhibitory action” (priority 2019, dated 2025)
